{"source": "patent US8192962B2", "about": "“Processes for detecting toxic substances” (Daikin Industries, Ltd., priority 2001, dated 2012)", "system": "Stress protein genes", "test": "DNA chip mRNA expression in yeast, stress protein genes (Table 6)", "type": "cell-based, Saccharomyces cerevisiae S288C", "procedure": "Yeast (Saccharomyces cerevisiae S288C (α SUC2mal mel gap2 CUP1)) were incubated at 25° C. on YPD medium (yeast extract 1%, polypepton 2%, glucose 2%). One of toxic chemical substances was added to the cells at logarithmic growth phase, and the cells were further incubated for two hours. Cells were cultured without any chemical substance in the same condition, and were used as control. Concentrations of the chemical substances were defined to inhibit the growth of the yeast but not lead to death.\nAfter completion of the incubation, the culture was centrifuged to collect the cells. To the cells, sodium acetate buffer (50 mM sodium acetate, 10 mM EDTA, 1% SDS) was added, and the mixture was shaken at 65° C. for five minutes, followed by returning to room temperature, and obtaining the supernatant, of which the procedures were repeated two times. To the supernatant, ½ amount of a solution of phenol/chloroform was added, and the mixture was centrifuged to give a supernatant, which was added with an equal amount of chloroform, and the mixture was centrifuged to give a supernatant. To the supernatant, an equal amount of isopropanol containing 0.3 M sodium acetate was added, and the mixture was allowed to stand at room temperature for 30 minutes, after which the mixture was centrifuged to give a sediment of the whole RNAs. Seventy % ethanol was added to the sediment, and the mixture was again centrifuged to give a sediment, which was then dried and dissolved in water. mRNA was isolated from the whole RNAs as followings. In view of the fact that a poly A chain is attached to the 3′ terminus of mRNA, a polynucleotide having a poly T structure which was immobilized on the surface of latex beads was used to trap the mRNA, and then the mRNA was washed and eluted with spine column (Oligotex-dT30<Super>mRNA Purification Kit, Takara). Reverse transcription of the mRNA was conducted with a reverse transcriptase (Super Script II Reverse Transcriptase; catalogue No. 18064-014, GibcoBRL) using fluorescence-labeled nucleotides to give cDNAs that were introduced with Cy3-dUTP or Cy5-dUTP during the reverse transcription.\nThe labeled cDNAs were dissolved in TE buffer (10mM Tris-HCl/1 mM EDTA, pH8.0), and the solution was dropped on the DNA chip containing the whole genes of yeast (DNA Chip Research Inc. Japan) so that the cDNAs were hybridized on the DNA chip at 65° C. for over 12 hours. The fluoresces intensity of the DNA chip was read with a scanner, and the ratio relative to the fluorescence intensity resulting from the absence of chemical substance was estimated as the following, which is shown in Tables 1 to 9: […]"}
{"smiles": "CCCCCCCCCCCCc1ccc(S(=O)(=O)[O-])cc1.[Na+]", "note": "[(17), sodium dodecylbenzosulfonate]", "values": [{"measurement": "The level of expressed mRNA in the presence of chemical substance/The level of expressed mRNA in the absence of chemical substance", "setting": "yeast gene YAL005C", "value": 0.8}, {"measurement": "The level of expressed mRNA in the presence of chemical substance/The level of expressed mRNA in the absence of chemical substance", "setting": "yeast gene YAL015C", "value": 1.1}, {"measurement": "The level of expressed mRNA in the presence of chemical substance/The level of expressed mRNA in the absence of chemical substance", "setting": "yeast gene YBL075C", "value": 1.2}, {"measurement": "The level of expressed mRNA in the presence of chemical substance/The level of expressed mRNA in the absence of chemical substance", "setting": "yeast gene YBL093C", "value": 1.4}, {"measurement": "The level of expressed mRNA in the presence of chemical substance/The level of expressed mRNA in the absence of chemical substance", "setting": "yeast gene YBR044C", "value": 0.9}, {"measurement": "The level of expressed mRNA in the presence of chemical substance/The level of expressed mRNA in the absence of chemical substance", "setting": "yeast gene YBR054W", "value": 0.7}, {"measurement": "The level of expressed mRNA in the presence of chemical substance/The level of expressed mRNA in the absence of chemical substance", "setting": "yeast gene YBR067C", "value": 0.5}, {"measurement": "The level of expressed mRNA in the presence of chemical substance/The level of expressed mRNA in the absence of chemical substance", "setting": "yeast gene YBR072W", "value": 1.8}, {"measurement": "The level of expressed mRNA in the presence of chemical substance/The level of expressed mRNA in the absence of chemical substance", "setting": "yeast gene YBR126C", "value": 1.5}, {"measurement": "The level of expressed mRNA in the presence of chemical substance/The level of expressed mRNA in the absence of chemical substance", "setting": "yeast gene YBR169C", "value": 1.3}, {"measurement": "The level of expressed mRNA in the presence of chemical substance/The level of expressed mRNA in the absence of chemical substance", "setting": "yeast gene YCL035C", "value": 2.6}, {"measurement": "The level of expressed mRNA in the presence of chemical substance/The level of expressed mRNA in the absence of chemical substance", "setting": "yeast gene YCR021C", "value": 0.7}, {"measurement": "The level of expressed mRNA in the presence of chemical substance/The level of expressed mRNA in the absence of chemical substance", "setting": "yeast gene YCR060W", "value": 1.2}, {"measurement": "The level of expressed mRNA in the presence of chemical substance/The level of expressed mRNA in the absence of chemical substance", "setting": "yeast gene YCR083W", "value": 1.3}, {"measurement": "The level of expressed mRNA in the presence of chemical substance/The level of expressed mRNA in the absence of chemical substance", "setting": "yeast gene YDL022W", "value": 1.0}, {"measurement": "The level of expressed mRNA in the presence of chemical substance/The level of expressed mRNA in the absence of chemical substance", "setting": "yeast gene YDL025C", "value": 1.0}, {"measurement": "The level of expressed mRNA in the presence of chemical substance/The level of expressed mRNA in the absence of chemical substance", "setting": "yeast gene YDR033W", "value": 0.7}, {"measurement": "The level of expressed mRNA in the presence of chemical substance/The level of expressed mRNA in the absence of chemical substance", "setting": "yeast gene YDR077W", "value": 1.4}, {"measurement": "The level of expressed mRNA in the presence of chemical substance/The level of expressed mRNA in the absence of chemical substance", "setting": "yeast gene YDR098C", "value": 1.0}, {"measurement": "The level of expressed mRNA in the presence of chemical substance/The level of expressed mRNA in the absence of chemical substance", "setting": "yeast gene YDR155C", "value": 1.2}, {"measurement": "The level of expressed mRNA in the presence of chemical substance/The level of expressed mRNA in the absence of chemical substance", "setting": "yeast gene YDR258C", "value": 1.3}, {"measurement": "The level of expressed mRNA in the presence of chemical substance/The level of expressed mRNA in the absence of chemical substance", "setting": "yeast gene YDR293C", "value": 1.4}, {"measurement": "The level of expressed mRNA in the presence of chemical substance/The level of expressed mRNA in the absence of chemical substance", "setting": "yeast gene YDR436W", "value": 0.9}, {"measurement": "The level of expressed mRNA in the presence of chemical substance/The level of expressed mRNA in the absence of chemical substance", "setting": "yeast gene YDR513W", "value": 1.3}, {"measurement": "The level of expressed mRNA in the presence of chemical substance/The level of expressed mRNA in the absence of chemical substance", "setting": "yeast gene YDR519W", "value": 1.8}, {"measurement": "The level of expressed mRNA in the presence of chemical substance/The level of expressed mRNA in the absence of chemical substance", "setting": "yeast gene YEL030W", "value": 0.9}, {"measurement": "The level of expressed mRNA in the presence of chemical substance/The level of expressed mRNA in the absence of chemical substance", "setting": "yeast gene YEL039C", "value": 0.7}, {"measurement": "The level of expressed mRNA in the presence of chemical substance/The level of expressed mRNA in the absence of chemical substance", "setting": "yeast gene YER042W", "value": 0.7}, {"measurement": "The level of expressed mRNA in the presence of chemical substance/The level of expressed mRNA in the absence of chemical substance", "setting": "yeast gene YER057C", "value": 1.1}, {"measurement": "The level of expressed mRNA in the presence of chemical substance/The level of expressed mRNA in the absence of chemical substance", "setting": "yeast gene YER103W", "value": 1.4}, {"measurement": "The level of expressed mRNA in the presence of chemical substance/The level of expressed mRNA in the absence of chemical substance", "setting": "yeast gene YER125W", "value": 1.0}, {"measurement": "The level of expressed mRNA in the presence of chemical substance/The level of expressed mRNA in the absence of chemical substance", "setting": "yeast gene YFL014W", "value": 1.5}, {"measurement": "The level of expressed mRNA in the presence of chemical substance/The level of expressed mRNA in the absence of chemical substance", "setting": "yeast gene YFL016C", "value": 1.2}, {"measurement": "The level of expressed mRNA in the presence of chemical substance/The level of expressed mRNA in the absence of chemical substance", "setting": "yeast gene YFL020C", "value": 1.5}, {"measurement": "The level of expressed mRNA in the presence of chemical substance/The level of expressed mRNA in the absence of chemical substance", "setting": "yeast gene YFR052W", "value": 1.2}, {"measurement": "The level of expressed mRNA in the presence of chemical substance/The level of expressed mRNA in the absence of chemical substance", "setting": "yeast gene YGL073W", "value": 2.5}, {"measurement": "The level of expressed mRNA in the presence of chemical substance/The level of expressed mRNA in the absence of chemical substance", "setting": "yeast gene YGL115W", "value": 0.8}, {"measurement": "The level of expressed mRNA in the presence of chemical substance/The level of expressed mRNA in the absence of chemical substance", "setting": "yeast gene YGL181W", "value": 1.0}, {"measurement": "The level of expressed mRNA in the presence of chemical substance/The level of expressed mRNA in the absence of chemical substance", "setting": "yeast gene YGR088W", "value": 0.9}, {"measurement": "The level of expressed mRNA in the presence of chemical substance/The level of expressed mRNA in the absence of chemical substance", "setting": "yeast gene YHL028W", "value": 1.6}, {"measurement": "The level of expressed mRNA in the presence of chemical substance/The level of expressed mRNA in the absence of chemical substance", "setting": "yeast gene YHL046C", "value": 0.9}, {"measurement": "The level of expressed mRNA in the presence of chemical substance/The level of expressed mRNA in the absence of chemical substance", "setting": "yeast gene YHR030C", "value": 2.0}, {"measurement": "The level of expressed mRNA in the presence of chemical substance/The level of expressed mRNA in the absence of chemical substance", "setting": "yeast gene YHR057C", "value": 1.6}, {"measurement": "The level of expressed mRNA in the presence of chemical substance/The level of expressed mRNA in the absence of chemical substance", "setting": "yeast gene YHR104W", "value": 1.9}, {"measurement": "The level of expressed mRNA in the presence of chemical substance/The level of expressed mRNA in the absence of chemical substance", "setting": "yeast gene YIL011W", "value": 0.8}]}
